The values below come from patent US20160150766A1, “ADVANCING GENETIC GAIN IN BOVINE” (priority 2013, published 2016).

In the assay the test system is prepubescent calves. The experiment in a line: Laparoscopic oocyte retrieval from superstimulated prepubescent calves. The class given is in vivo, bovine. Conditions: calves 3.5-6 months of age, superstimulated: progesterone CIDR, FSH s.c. at 12-hour intervals (20/15/10 mg/dose), 50 mg LH i.v.; aspiration 23 hours after LH. The procedure: Laparoscopic oocyte retrieval in prepubescent calves younger than six months of age provides an avenue of shortening the generation interval, thus increasing the rate of genetic gain. […] Three laparoscopic oocyte retrievals were performed on each calf, and the oocytes collected were fertilized in vitro and cultured to the blastocyst stage of development. Resulting embryos were transferred fresh into synchronized recipients, and pregnancies were carried out to Day 60. On average, nine oocytes were retrieved per aspiration when the calves were superstimulated. An average of six oocytes were retrieved from calves that had no FSH treatment.
Calves 3.5-6 months of age were used as egg donors. Initially a progesterone releasing device designed for sheep (Eazi Breed CIDR, Zoetis, USA) containing 0.3 g progesterone was inserted into the vagina of each calf and remained there for 12 days. The device was then removed for six days. A new CIDR was inserted and left for 12 days.
Superstimulation started nine days after insertion of the CIDR with the injection of […] follicle stimulating hormone (FSH) s.c. at 12-hour intervals, starting with two doses of 20 mg/dose, then two doses of 15 mg/dose, and finally two doses of 10 mg by the last injections. The CIDR was removed at the time of the final FSH injection and 50 mg of LH administered i.v. 2.5 days after removal of the CIDR. […]

With follicle stimulating hormone [FSH], the “oocytes retrieved per aspiration (average)” value is “nine”.
